Experimental data from PubChem BioAssay (NCI).
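The compound was tested at five concentrations on cells cultured in 96-well plates, with a 48-hour exposure period. GI50 is the concentration that inhibits growth by half. The concentration for full growth arrest is given as TGI.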

Legend:
Assay in all cases: NCI tumour cell line growth inhibition, 48 h
[1] = system: A549 NSCLC
[2] = system: CAKI-1 renal
[3] = system: EKVX NSCLC
[4] = system: HL-60(TB) leukemia
[5] = system: HOP-62 NSCLC
[6] = system: K-562 leukemia
[7] = system: NCI-H226 lung
[8] = system: NCI-H460 lung
[9] = system: SK-OV-3 ovarian
[10] = system: TK-10 renal

SMILES | GI50 [1] [µM] | TGI [1] [µM] | GI50 [2] [µM] | TGI [2] [µM] | GI50 [3] [µM] | TGI [3] [µM] | GI50 [4] [µM] | TGI [4] [µM] | GI50 [5] [µM] | TGI [5] [µM] | GI50 [6] [µM] | TGI [6] [µM] | GI50 [7] [µM] | TGI [7] [µM] | GI50 [8] [µM] | TGI [8] [µM] | GI50 [9] [µM] | TGI [9] [µM] | GI50 [10] [µM] | TGI [10] [µM]
CC(C)(C)[Si](C)(C)OC1[C@@H](O[Si](C)(C)C(C)(C)C)[C@@H](CNC(=O)NC(=O)NC(=O)CCl)O[C@H]1n1cnc2c(NC(=O)Nc3ccccc3)ncnc21 (stereo not given in full) | 2.26 | 8.92 | 2.2 | 9.42 | 1.69 | 6.54 | 1.45 | 3.22 | 1.66 | 4.8 | 2.56 | 7.51 | 8.67 | 15.9 | 2.23 | 12.1 | 9.51 | 17.5 | 2.42 | 7.81
COc1ccc(/C(=C/c2ccc3ccccc3c2)c2nn[nH]n2)cc1OC | 3.8 | > 100 | 2.24 | > 100 | 18.2 | > 100 | 2.56 | 6.94 | 2.33 | > 100 | 0.678 | > 100 | > 100 | > 100 | 2.81 | 16.3 | 3.63 | > 100 | 18.5 | > 100
O=C(/C=C\c1cc(Br)ccc1O)/C=C/c1cc(Br)ccc1O | 2.61 | 13.5 | 0.938 | 3.33 | 1.54 | 3.18 | 0.385 | 4.26 | 3.22 | 9.44 | 0.445 | 8.12 | 2.63 | 8.69 | 1.57 | 3.91 | 4.41 | 12.3 | 2.05 | 4.03
Cc1ccc(S(=O)(=O)OCC(=O)Nc2ccc(C(=O)O)c(O)c2)cc1 | 199 | 503 | 14.7 | 91.1 | 165 | 332 | 26.1 | 193 | 32.6 | 86 | 28.9 | 120 | 30.9 | 139 | 124 | 292 | 49.5 | 188 | 207 | 464
CC12CCCC(C#N)(C1)OC2=O (stereo not given) |  | > 100 |  | > 100 |  | > 100 |  | > 100 |  | > 100 |  | > 100 |  | > 100 |  | > 100 |  | > 100 |  | > 100
O=C(CCC(=O)Nc1ccc(Cl)cc1)CC(=O)c1ccc2ccccc2c1 |  | > 100 |  | > 100 |  | > 100 |  | > 100 |  | > 100 |  | > 100 |  | > 100 |  | > 100 |  | > 100 |  | > 100
CCCCCCCCCCCCNC(=O)N[C@H](C(=O)N[C@H]1/C=C/CCNC(=O)/C=C/[C@H](C)NC1=O)C(C)C | 0.262 | 9.07 | 4.95 | > 100 | 0.477 | 12.6 | 0.143 | 13.3 | 0.0538 | 0.178 | 0.456 | 15.1 | 0.0582 | 0.167 | 0.0416 | 0.288 | 0.339 | 1.99 | 0.0352 | 0.191
CON=C1C[C@]2(C[C@@H]3C[C@@H](C/C=C(\C)C[C@@H](C)/C=C/C=C4\CO[C@@H]5[C@H](O)C(C)=C[C@@H](C(=O)O3)[C@]45O)O2)O[C@H](/C(C)=C/C(C)C)[C@H]1C | 13.8 | 29.1 | 7.52 | 21.6 | 6.99 | 24 | 2.48 | 5.92 | 15.5 | 29 | 3.69 | 10.8 | 16 | 29.8 | 13.1 | 30.3 | 15.2 | 28.5 | 17.8 | 33.4
CC(=O)n1nnc2ccc([N+](=O)[O-])cc21 |  | > 100 |  | > 100 |  | > 100 |  | > 100 |  | > 100 |  | > 100 |  | > 100 |  | > 100 |  | > 100 |  | > 100
O=C(O)c1ccc(NCc2nc3ccccc3[nH]2)cc1 | > 100 | > 100 | > 100 | > 100 | > 100 | > 100 | > 100 | > 100 | > 100 | > 100 | > 100 | > 100 | > 100 | > 100 | > 100 | > 100 | > 100 | > 100 | > 100 | > 100
NS(=O)(=O)c1ccc(N=Nc2c(O)[nH]c3ccc(C(=O)NCCc4cnc[nH]4)cc23)cc1 | > 25 | > 25 | > 25 | > 25 | > 25 | > 25 | > 25 | > 25 | > 25 | > 25 | > 25 | > 25 | > 25 | > 25 | > 25 | > 25 | > 25 | > 25 | > 25 | > 25
